In EPA's ToxRefDB 2:

What was measured:
rat [1] = settings: Subchronic oral toxicity in rodents, other, Gavage/Intubation, dose end: 92 day, group: systemic, systemic / in life observation / clinical signs / respiration (rales) + systemic / in life observation / mortality / mortality + systemic / …
rabbit [2] = settings: Sub-acute dermal toxicity, new zealand white, Topical, dose end: 21 day, group: systemic, systemic / in life observation / clinical signs / erythema + systemic / pathology gross / skin / discolored + systemic / pathology gross / …
rat [3] = settings: Prenatal developmental toxicity study, other, Oral, Gavage/Intubation, dose end: 16 GD
dog [4] = settings: Chronic toxicity; beagle; Oral; Feed; dose end: 52 week; group: systemic; systemic / clinical chemistry / cholesterol / cholesterol
dog [5] = settings: Subchronic oral toxicity in nonrodent, beagle, Feed, dose end: 13 week, group: systemic
hamster = settings: Multigenerational reproductive toxicity study, golden syrian, Oral, Gavage/Intubation, dose end: 1 generation
rat [6] = settings: Multigenerational reproductive toxicity study, long evans, Oral, Gavage/Intubation, dose end: 1 generation
dog [7] = settings: Chronic toxicity; beagle; Oral; Feed; dose end: 24 month; group: systemic; systemic / clinical chemistry / alanine aminotransferase (alt/sgpt) / alanine aminotransferase (alt/sgpt) + systemic / clinical chemistry / …
rat [8] = settings: Sub-acute dermal toxicity, sprague dawley, Topical, dose end: 28 day, group: systemic
rat [9] = settings: Multigenerational reproductive toxicity study, sprague dawley, Oral, Feed, dose end: 2 generation
rabbit [10] = settings: Prenatal developmental toxicity study, new zealand white, Oral, Capsule, dose end: 18 GD
dog [11] = settings: Chronic toxicity, beagle, Oral, Feed, dose end: 12 month, group: systemic
rat [12] = settings: Combined chronic toxicity/carcinogenicity; sprague dawley; Oral; Feed; dose end: 115 week; group: systemic; systemic / in life observation / body weight / body weight
mouse = settings: Combined chronic toxicity/carcinogenicity, cd1, Oral, Feed, dose end: 89 week, group: systemic
[13] = group: developmental, developmental / developmental malformation / bone / bipartite ossification + developmental / developmental malformation / bone / dumbbell …
[14] = group: maternal, systemic / organ weight / liver / absolute
[15] = systemic / in life observation / food consumption / food consumption + systemic / clinical chemistry / cholesterol / cholesterol + systemic…
[16] = group: offspring, systemic / in life observation / body weight / offspring (pup) weight
[17] = group: parental, systemic / pathology gross / kidney / enlarged + systemic / pathology gross / liver / enlarged + systemic / pathology gross / sperm measure…
[18] = group: parental, systemic / organ weight / epididymis / absolute + systemic / organ weight / testes / absolute + systemic / pathology gross / sperm measure…
[19] = group: parental, systemic / pathology gross / sperm measure / sperm count + systemic / pathology microscopic / testes / atrophy
[20] = group: reproductive, reproductive / reproductive performance / pregnancy / pregnancy + reproductive / reproductive performance / resorptions / resorptions + …
[21] = systemic / pathology microscopic / epididymis / hypospermia + systemic / pathology microscopic / testes / degeneration
[22] = systemic / pathology microscopic / epididymis / hypospermia + systemic / pathology microscopic / testes / degeneration + systemic / …
[23] = group: offspring, systemic / organ weight / liver / relative to body weight
[24] = group: parental, systemic / organ weight / kidney / relative to body weight
[25] = group: developmental, developmental / developmental malformation / bone / irregular ossification
[26] = group: maternal, reproductive / reproductive performance / aborted / aborted + systemic / in life observation / clinical signs / ataxia
[27] = group: maternal, reproductive / reproductive performance / aborted / aborted + systemic / in life observation / clinical signs / ataxia + systemic / in life …
[28] = systemic / pathology microscopic / lung / [other] + systemic / in life observation / clinical signs / inappetence + systemic / in life …
[29] = systemic / in life observation / mortality / mortality

O=C(CBr)c1ccc(O)cc1 [2-Bromo-4-hydroxyacetophenone]
LEL (rat [1]): 30 mg/kg/day
LOAEL (rat [1]): 30 mg/kg/day
NEL (rat [1]): 6 mg/kg/day
NOAEL (rat [1]): 6 mg/kg/day
LEL (rabbit [2]): 20 mg/kg/day
LOAEL (rabbit [2]): 20 mg/kg/day
NEL (rabbit [2]): < 20 mg/kg/day
NOAEL (rabbit [2]): < 20 mg/kg/day

COC(=O)Nc1nc2ccccc2[nH]1 [Carbendazim]
LEL (rat [3]; [13]): 20 mg/kg/day
LOAEL (rat [3]; [13]): 20 mg/kg/day
NEL (rat [3]; [13]): 10 mg/kg/day
NOAEL (rat [3]; [13]): 10 mg/kg/day
LOAEL (rat [3]; [14]): 90 mg/kg/day
NEL (rat [3]; [14]): 20 mg/kg/day
NOAEL (rat [3]; [14]): 20 mg/kg/day
LEL (rat [3]; group: maternal, systemic / organ weight / liver / absolute + reproductive / offspring survival early / live fetuses / live fetuses + reproductive / …): 90 mg/kg/day
LEL (dog [4]): 16.5 mg/kg/day
LOAEL (dog [4]): 16.5 mg/kg/day
NEL (dog [4]): 6.43 mg/kg/day
NOAEL (dog [4]): 6.43 mg/kg/day
LOAEL (dog [5]; systemic / clinical chemistry / cholesterol / cholesterol + systemic / pathology microscopic / liver / [other]): 35 mg/kg/day
LEL (dog [5]; systemic / in life observation / food consumption / food consumption + systemic / clinical chemistry / cholesterol / cholesterol): 11.3 mg/kg/day
NEL (dog [5]; [15]): 2.7 mg/kg/day
NOAEL (dog [5]; [15]): 11.3 mg/kg/day
LEL (hamster; [16]): 400 mg/kg/day
LOAEL (hamster; [16]): > 400 mg/kg/day
NEL (hamster; [16]): < 400 mg/kg/day
NOAEL (hamster; [16]): ≥ 400 mg/kg/day
LEL (hamster; [17]): 400 mg/kg/day
LOAEL (hamster; [17]): > 400 mg/kg/day
NEL (hamster; [17]): < 400 mg/kg/day
NOAEL (hamster; [17]): ≥ 400 mg/kg/day
LOAEL (rat [6]; [18]): > 400 mg/kg/day
NOAEL (rat [6]; [18]): ≥ 400 mg/kg/day
LEL (rat [6]; [19]): 50 mg/kg/day
NEL (rat [6]; [19]): < 50 mg/kg/day
LEL (rat [6]; group: reproductive, reproductive / reproductive performance / pregnancy / pregnancy + reproductive / offspring survival early / litter viability other / litter …): 200 mg/kg/day
NEL (rat [6]; group: reproductive, reproductive / reproductive performance / pregnancy / pregnancy + reproductive / reproductive performance / resorptions / resorptions): 100 mg/kg/day
LOAEL (rat [6]; [20]): > 400 mg/kg/day
NOAEL (rat [6]; [20]): ≥ 400 mg/kg/day
LEL (dog [7]): 12.5 mg/kg/day
LOAEL (dog [7]): 12.5 mg/kg/day
NEL (dog [7]): 2.5 mg/kg/day
NOAEL (dog [7]): 2.5 mg/kg/day
LEL (rat [8]; [21]): 120 mg/kg/day
LOAEL (rat [8]; [21]): 120 mg/kg/day
NEL (rat [8]; [22]): 20 mg/kg/day
NOAEL (rat [8]; [22]): 20 mg/kg/day

COc1c(Cl)ccc(Cl)c1C(=O)O [Dicamba]
LOAEL (rat [9]; [16]): 122 mg/kg/day
NOAEL (rat [9]; group: offspring, systemic / in life observation / body weight / offspring (pup) weight + systemic / organ weight / liver / relative to body weight): 40 mg/kg/day
LEL (rat [9]; [23]): 40 mg/kg/day
NEL (rat [9]; [23]): < 40 mg/kg/day
LEL (rat [9]; [24]): 40 mg/kg/day
NEL (rat [9]; [24]): < 40 mg/kg/day
LOAEL (rat [9]; group: parental, systemic / organ weight / liver / relative to body weight): 419 mg/kg/day
NOAEL (rat [9]; group: parental, systemic / organ weight / liver / relative to body weight + systemic / in life observation / body weight / body weight + systemic / organ …): 122 mg/kg/day
LEL (rabbit [10]; [25]): 300 mg/kg/day
LOAEL (rabbit [10]; [25]): 300 mg/kg/day
NEL (rabbit [10]; [25]): 150 mg/kg/day
NOAEL (rabbit [10]; [25]): 150 mg/kg/day
LEL (rabbit [10]; [26]): 150 mg/kg/day
LOAEL (rabbit [10]; [26]): 150 mg/kg/day
NEL (rabbit [10]; [27]): 30 mg/kg/day
NOAEL (rabbit [10]; [27]): 30 mg/kg/day
NEL (dog [11]; systemic / pathology microscopic / lung / [other]): 2 mg/kg/day
LEL (dog [11]; systemic / pathology microscopic / lung / [other] + systemic / in life observation / clinical signs / inappetence): 11 mg/kg/day
LOAEL (dog [11]; [28]): > 52 mg/kg/day
NOAEL (dog [11]; [28]): ≥ 52 mg/kg/day
LEL (rat [12]): 125 mg/kg/day
LOAEL (rat [12]): > 125 mg/kg/day
NEL (rat [12]): 12.5 mg/kg/day
NOAEL (rat [12]): ≥ 125 mg/kg/day
LOAEL (mouse; [29]): 358 mg/kg/day
NOAEL (mouse; [29]): 108 mg/kg/day
LEL (mouse; systemic / organ weight / kidney / nos): 121 mg/kg/day
NEL (mouse; systemic / organ weight / kidney / nos + systemic / in life observation / body weight / body weight gain): 18.8 mg/kg/day
